According to patent US20210214758A1, “METHODS AND TOOLS FOR DETERMINING CLONAL RELATEDNESS AND PREDICTING CLONAL TRAITS” (priority 2018, published 2021):

The compounds below were run on Klebsiella isolates (assay: Antibiotic susceptibility of Klebsiella clinical isolates per 7-SNP clonotype (Lookup Table 1; disk diffusion)). Conditions: CT 000.
Format: cell-based, Klebsiella spp.
Method: In further embodiments, the Lookup Table is Lookup Table 1. The information contained in Lookup Table 1 below was obtained from urine specimens from patients with Klebsiella infections from several clinics within different regions of the United States. CT=clonotypes determined using a 7-SNP combination: phoE54; rpoB130; infB279; mdh315; phoE336; phoE354; and mdh429.
Next, antibiotic resistance was determined for all 387 Klebsiella isolates in the discovery set. Antibiotic testing was carried out according to the standard disk diffusion method as described in the Clinical and Laboratory Standards Institute (M100 Performance Standards for Antimicrobial Susceptibility Testing, 27th Edition, 2017). […] Since almost all Klebsiella isolates are known to be resistant to AMP and sensitive to IMI, TET is not used for treatment of urinary tract infections, and ESBL production is partially reflected in resistance to CTR, these antibiotics were not included for further analysis.
To aid in clinical decision-making and to translate clonotype information to treatment selection, Lookup Table 1 was generated. […] The information contained in Lookup Table 1 was obtained from urine specimens from patients with Klebsiella infections from several clinics within different regions of the United States. Indications of allowance or non-recommendation were determined based on a 20% resistance threshold to the indicated antibiotic; i.e., the antibiotic is recommended when more than 80% of the tested isolates within the indicated clonotype were susceptible to the indicated antibiotic, and was cautioned against when less than 80% of the isolates were susceptible to the antibiotic.

Structure (SMILES) | susceptibility, %
O=C1CN(/N=C/c2ccc([N+](=O)[O-])o2)C(=O)N1 [NIT, nitrofurantoin] | 91%

Same assay, conditions: CT 001

Structure (SMILES) | susceptibility, %
O=C1CN(/N=C/c2ccc([N+](=O)[O-])o2)C(=O)N1 [NIT, nitrofurantoin] | 0%

Same assay, conditions: CT 010

Structure (SMILES) | susceptibility, %
O=C1CN(/N=C/c2ccc([N+](=O)[O-])o2)C(=O)N1 [NIT, nitrofurantoin] | 33%

Same assay, conditions: CT 011

Structure (SMILES) | susceptibility, %
O=C1CN(/N=C/c2ccc([N+](=O)[O-])o2)C(=O)N1 [NIT, nitrofurantoin] | 82%

Same assay, conditions: CT 031

Structure (SMILES) | susceptibility, %
O=C1CN(/N=C/c2ccc([N+](=O)[O-])o2)C(=O)N1 [NIT, nitrofurantoin] | 100%

Same assay, conditions: CT 040

Structure (SMILES) | susceptibility, %
O=C1CN(/N=C/c2ccc([N+](=O)[O-])o2)C(=O)N1 [NIT, nitrofurantoin] | 50%

Same assay, conditions: CT 050

Structure (SMILES) | susceptibility, %
O=C1CN(/N=C/c2ccc([N+](=O)[O-])o2)C(=O)N1 [NIT, nitrofurantoin] | 33%

Same assay, conditions: CT 051

Structure (SMILES) | susceptibility, %
O=C1CN(/N=C/c2ccc([N+](=O)[O-])o2)C(=O)N1 [NIT, nitrofurantoin] | 56%

Same assay, conditions: CT 071

Structure (SMILES) | susceptibility, %
O=C1CN(/N=C/c2ccc([N+](=O)[O-])o2)C(=O)N1 [NIT, nitrofurantoin] | 60%

Same assay, conditions: CT 100

Structure (SMILES) | susceptibility, %
O=C1CN(/N=C/c2ccc([N+](=O)[O-])o2)C(=O)N1 [NIT, nitrofurantoin] | 86%

Same assay, conditions: CT 110

Structure (SMILES) | susceptibility, %
O=C1CN(/N=C/c2ccc([N+](=O)[O-])o2)C(=O)N1 [NIT, nitrofurantoin] | 0%

Same assay, conditions: CT 111

Structure (SMILES) | susceptibility, %
O=C1CN(/N=C/c2ccc([N+](=O)[O-])o2)C(=O)N1 [NIT, nitrofurantoin] | 30%

Same assay, conditions: CT 130

Structure (SMILES) | susceptibility, %
O=C1CN(/N=C/c2ccc([N+](=O)[O-])o2)C(=O)N1 [NIT, nitrofurantoin] | 70%

Same assay, conditions: CT 131

Structure (SMILES) | susceptibility, %
O=C1CN(/N=C/c2ccc([N+](=O)[O-])o2)C(=O)N1 [NIT, nitrofurantoin] | 56%

Same assay, conditions: CT 141

Structure (SMILES) | susceptibility, %
O=C1CN(/N=C/c2ccc([N+](=O)[O-])o2)C(=O)N1 [NIT, nitrofurantoin] | 0%

Same assay, conditions: CT 150

Structure (SMILES) | susceptibility, %
O=C1CN(/N=C/c2ccc([N+](=O)[O-])o2)C(=O)N1 [NIT, nitrofurantoin] | 42%

Same assay, conditions: CT 151

Structure (SMILES) | susceptibility, %
O=C1CN(/N=C/c2ccc([N+](=O)[O-])o2)C(=O)N1 [NIT, nitrofurantoin] | 41%

Same assay, conditions: CT 160

Structure (SMILES) | susceptibility, %
O=C1CN(/N=C/c2ccc([N+](=O)[O-])o2)C(=O)N1 [NIT, nitrofurantoin] | 0%

Same assay, conditions: CT 170

Structure (SMILES) | susceptibility, %
O=C1CN(/N=C/c2ccc([N+](=O)[O-])o2)C(=O)N1 [NIT, nitrofurantoin] | 39%

Same assay, conditions: CT 171

Structure (SMILES) | susceptibility, %
O=C1CN(/N=C/c2ccc([N+](=O)[O-])o2)C(=O)N1 [NIT, nitrofurantoin] | 28%

Same assay, conditions: CT 200

Structure (SMILES) | susceptibility, %
O=C1CN(/N=C/c2ccc([N+](=O)[O-])o2)C(=O)N1 [NIT, nitrofurantoin] | 97%

Same assay, conditions: CT 201

Structure (SMILES) | susceptibility, %
O=C1CN(/N=C/c2ccc([N+](=O)[O-])o2)C(=O)N1 [NIT, nitrofurantoin] | 66%

Same assay, conditions: CT 210

Structure (SMILES) | susceptibility, %
O=C1CN(/N=C/c2ccc([N+](=O)[O-])o2)C(=O)N1 [NIT, nitrofurantoin] | 57%

Same assay, conditions: CT 211

Structure (SMILES) | susceptibility, %
O=C1CN(/N=C/c2ccc([N+](=O)[O-])o2)C(=O)N1 [NIT, nitrofurantoin] | 81%

Same assay, conditions: CT 230

Structure (SMILES) | susceptibility, %
O=C1CN(/N=C/c2ccc([N+](=O)[O-])o2)C(=O)N1 [NIT, nitrofurantoin] | 0%

Same assay, conditions: CT 231

Structure (SMILES) | susceptibility, %
O=C1CN(/N=C/c2ccc([N+](=O)[O-])o2)C(=O)N1 [NIT, nitrofurantoin] | 50%

Same assay, conditions: CT 240

Structure (SMILES) | susceptibility, %
O=C1CN(/N=C/c2ccc([N+](=O)[O-])o2)C(=O)N1 [NIT, nitrofurantoin] | 100%

Same assay, conditions: CT 241

Structure (SMILES) | susceptibility, %
O=C1CN(/N=C/c2ccc([N+](=O)[O-])o2)C(=O)N1 [NIT, nitrofurantoin] | 0%

Same assay, conditions: CT 250

Structure (SMILES) | susceptibility, %
O=C1CN(/N=C/c2ccc([N+](=O)[O-])o2)C(=O)N1 [NIT, nitrofurantoin] | 50%

Same assay, conditions: CT 251

Structure (SMILES) | susceptibility, %
O=C1CN(/N=C/c2ccc([N+](=O)[O-])o2)C(=O)N1 [NIT, nitrofurantoin] | 57%

Same assay, conditions: CT 271

Structure (SMILES) | susceptibility, %
O=C1CN(/N=C/c2ccc([N+](=O)[O-])o2)C(=O)N1 [NIT, nitrofurantoin] | 50%

Same assay, conditions: CT 300

Structure (SMILES) | susceptibility, %
O=C1CN(/N=C/c2ccc([N+](=O)[O-])o2)C(=O)N1 [NIT, nitrofurantoin] | 0%
